Results on six compounds are retold here after patent US9072306B2, “Method for the pre- or post-harvest treatment of plant products, using phosphonic acid and an essential oil” (priority 2010, dated 2015).

The test system of series [1] is Colletotrichum gloeosporioides. As to the kind of experiment: Treatment of olive trees affected by Colletotrichum gloeosporioides. The series is classed as in vivo. The conditions noted are these: for Percentage of olive leaves with symptoms of infection: dose 0.5% of potassium sesquiphosphite composition alone. An excerpt:
A composition at about 20% of clove oil and a composition of the potassium salt of phosphonic acid were separately applied at doses of 0.3% and 0.5% respectively, as well as in combination with the same doses.

For a further series, the system named is Geotrichum sp. As to the kind of experiment: Efficacy against Geotrichum sp on inoculated citrus (mandarin ortanique). The conditions noted are these: K-Phos 500 ml/100 L (375 g/100 L potassium sesquiphosphite), spraying at ambient temperature. The format is in vivo. The method, then:
The fruits were inoculated with a suspension of spores of Geotrichum sp after perforation of the skin. […] When clove oil alone was applied, the fruits were immersed for 2 min in a bath at a temperature of between 49° C. and 51° C. The fruits were stored. At various time intervals, the fruits were individually inspected for signs of phytotoxicity and efficacy by determining the percentage of the surface of the skin affected and the stage of development of the disease in the controls. The variables studied were the incidence (percentage of fruit affected) and severity of the attack (percentage of the fruit surface affected by the disease).

For a further series, the system named is Helminthosporium solani. As to the kind of experiment: Viability of Helminthosporium solani propagules on treated potato tubers in storage. The method, then: (§1) The efficacy of combinations of essential oils and potassium salt of phosphonic acid (potassium sesquiphosphite) to reduce the viability of fungal infection and diseases in potatoes during storage was measured in the following manner: the tubers were collected. 500 tubers were selected for their average infection of Rhizoctonia (variety Nicola Bio); Helminthosporium solani (variety Vivaldi traditional). The tubers were incubated at 15° C. for 45 days to allow the development of symptoms. 50 tubers (6 to 8 kg) were treated with a composition of essential oil (at 570 ppm or 1140 ppm), a composition of potassium salt of phosphonic acid at 0.6% or 1.2% by weight, as well as mixtures thereof. The phosphonic acid solution was sprayed at ambient temperature at an application rate of 75 mL per 5 kg. 50 mL of clove oil solution were sprayed out. The tubers were incubated at 8° C. for 45 days after treatment. The viability of colonies of Rhizoctonia and Helminthosporium was monitored.

The next series has as its system Rhizoctonia. As to the kind of experiment: Viability of Rhizoctonia propagules on treated potato tubers in storage. The method, then:
as §1

In series [2] the test system is Colletotrichum gloeosporioides. The note with it: in vivo; cited from earlier work.
For a further series, the system named is Penicilliums. The note with it: ambient temperature, treatment doses close to 10,000 ppm, oranges; cited from earlier work.
Where [3] appears, read: 0.6% potassium sesquiphosphite alone, potato tubers sprayed at ambient temperature, 45 days at 8° C. after treatment.
The mark [4] stands for this setting: 1.2% potassium sesquiphosphite alone, potato tubers sprayed at ambient temperature, 45 days at 8° C. after treatment.
Where [5] appears, read: 570 ppm oil/terpene alone, potato tubers sprayed, 45 days at 8° C. after treatment.

Take potassium sesquiphosphite: the figures for the “Percentage of olive leaves with symptoms of infection” value in series [1] (t1 + 90 days) and in series [1] (t1) were 50% and 41%, respectively. In addition, in the series with Geotrichum sp, the “Percentage of fruit affected after 14 days, value in parentheses (activity compared to the control)” value is reported as “no activity”. The entries for the “Viability of Propagules (%) Helminthosporium solani” value in the series on Helminthosporium solani (setting [3]) and in the series with Helminthosporium solani (setting [4]) were 30% and 6%, respectively. Moreover, the “Viability of Propagules (%) Rhizoctonia” value was 60% in the series on Rhizoctonia (setting [3]) and 22% with Rhizoctonia (setting [4]).
For the compound `O=C1C2CC=CCC2C(=O)N1SC(Cl)(Cl)Cl` (stereo not drawn) [Captan], the “activity in control of the disease in olive orchards” value in series [2] is “low level of activity”.
With `Cc1ccc(C(C)C)cc1O` [carvacrol], the “Viability of Propagules (%) Helminthosporium solani” value in the series with Helminthosporium solani (setting [5]) is on record as 50%. Further, the “Viability of Propagules (%) Rhizoctonia” value with Rhizoctonia (setting [5]) is 52%.
`Cc1ccc(C(C)C)c(O)c1` [thymol]: the “Viability of Propagules (%) Helminthosporium solani” value in the series on Helminthosporium solani (Helminthosporium solani, in vivo, 45 days, 570 ppm) is 45%. In addition, the “Viability of Propagules (%) Rhizoctonia” value with Rhizoctonia (Rhizoctonia, in vivo, 45 days, 570 ppm) turned out to be 75%.
As for `CC(C)=CCC/C(C)=C/CO` [geraniol], in the series with Helminthosporium solani (setting [5]), the “Viability of Propagules (%) Helminthosporium solani” value worked out at 38%. Moreover, in the series with Rhizoctonia (setting [5]), the “Viability of Propagules (%) Rhizoctonia” value was 83%.
For `O=[PH](O)O` [phosphonic acid, Phosphonic acid], the “activity compared to the control (olive leaf infection)” value in series [1] (applied alone) is given as “low level of activity”. Moreover, the “control of the growth of Helminthosporium solani” value in the series with Helminthosporium solani (applied alone) is “altogether insufficient degree”. Also, the “control of the growth of Rhizoctonia” value in the series with Rhizoctonia (applied alone) is given as “altogether insufficient degree”. Moreover, in the series on Penicilliums, the “activity on Penicilliums” value is recorded as “very weak”.
